# Test results taken from patent US20240226343A1, “NEUROPEPTIDE Y1 RECEPTOR (NPY1R) TARGETED THERAPEUTICS AND USES THEREOF” (RADIONETICS ONCOLOGY, INC., priority 2022, published 2024).
# Target: T1, hNPY1R (Homo sapiens, UniProt P25929)
# T1 construct: SK-N-MC cells endogenously expressing the NPY1R receptor; endogenous in cells; host or cells: SK-N-MC cells (crude membrane fractions)
# T1 sequence (P25929 1-384): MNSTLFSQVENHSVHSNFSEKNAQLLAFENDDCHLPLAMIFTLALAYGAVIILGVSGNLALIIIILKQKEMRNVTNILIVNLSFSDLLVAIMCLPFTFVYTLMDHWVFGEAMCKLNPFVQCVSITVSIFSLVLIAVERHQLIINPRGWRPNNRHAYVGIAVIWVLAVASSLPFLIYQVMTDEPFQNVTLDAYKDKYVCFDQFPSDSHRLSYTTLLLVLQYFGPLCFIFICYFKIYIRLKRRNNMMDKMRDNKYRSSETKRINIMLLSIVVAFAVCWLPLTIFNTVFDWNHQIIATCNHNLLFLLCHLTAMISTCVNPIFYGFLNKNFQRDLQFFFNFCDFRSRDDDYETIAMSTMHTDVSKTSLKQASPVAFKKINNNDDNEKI
# Assay: NPY1R binding assay: SK-N-MC membranes, [125I]-Peptide YY (human) competition
# Conditions: data obtained after 60 minutes at 37° C.; SK-N-MC membranes; [125I]-Peptide YY 0.05 nM; read-out: hNPY1R binding Ki* †
row,Ki [nM],SMILES
1,> 100,"N=C(N)NCCC[C@@H](NC(=O)C(c1ccccc1)c1cccc(OCCOCCOCCOCCOCCNC(=O)CN2CCN(CC(=O)O)CCN(CC(=O)O)CCN(CC(=O)O)CC2)c1)C(=O)NCc1ccc(CNC(N)=O)cc1 (stereo partly drawn) [Compound 113A, 2,2′,2″-(10-(17-(3-(2-(((R)-5-guanidino-1-oxo-1-((4-(ureidomethyl)benzyl)amino)pentan-2-yl)amino)-2-oxo-1-phenylethyl)phenoxy)-2-oxo-6,9,12,15-tetraoxa-3-azaheptadecyl)-1,4,7,10-tetraazacyclododecane-1,4,7-triyl)triacetic acid—2,2,2-trifluoroacetic acid (1/1)]"
2,10 to 100,"CCC(=O)NCCNC(=O)/N=C(/N)NCCC[C@@H](NC(=O)C(c1ccccc1)c1cccc(OCCOCCOCCOCCOCCNC(=O)CN2CCN(CC(=O)O)CCN(CC(=O)O)CCN(CC(=O)O)CC2)c1)C(=O)NCc1ccc(CNC(N)=O)cc1 (single isomer, unassigned) [Compound 114B]"
3,< 10,"CCC(=O)NCCNC(=O)/N=C(/N)NCCC[C@@H](NC(=O)C(c1ccccc1)c1cccc(OCCCCNC(=O)CNC(=O)[C@@H](CC(N)=O)NC(=O)CN2CCN(CC(=O)O)CCN(CC(=O)O)CCN(CC(=O)O)CC2)c1)C(=O)NCc1ccc(O)cc1 (single isomer, unassigned) [Compound 112B]"

row,SMILES,Ki [nM]
1,"CCC(=O)NCCNC(=O)/N=C(/N)NCCC[C@@H](NC(=O)C(c1ccccc1)c1cccc(OCCOCCOCCOCCNC(=O)CN2CCN(CC(=O)O)CCN(CC(=O)O)CCN(CC(=O)O)CC2)c1)C(=O)NCc1ccc(O)cc1 (stereo partly drawn) [Compound 104, 2,2′,2″-(10-(14-(3-((4R,Z)-9-amino-4-((4-hydroxybenzyl)carbamoyl)-2,11,16-trioxo-1-phenyl-3,8,10,12,15-pentaazaoctadec-9-en-1-yl)phenoxy)-2-oxo-6,9,12-trioxa-3-azatetradecyl)-1,4,7,10-tetraazacyclododecane-1,4,7-triyl)triacetic acid]",< 10
2,"CCC(=O)NCCNC(=O)/N=C(/N)NCCC[C@@H](NC(=O)C(c1ccccc1)c1ccc(NC(=O)CCOCCOCCOCCOCCNC(=O)CN2CCN(CC(=O)O)CCN(CC(=O)O)CCN(CC(=O)O)CC2)cc1)C(=O)NCc1ccc(O)cc1 (single isomer, unassigned) [Compound 102B]",10 to 100

# Same assay, conditions: data obtained after 120 minutes at rt; SK-N-MC membranes; [125I]-Peptide YY; read-out: hNPY.R binding Ki* ††
row,Ki [nM],SMILES
1,< 10,"CCNC(=O)/N=C(/N)NCCC[C@@H](NC(=O)C(c1ccccc1)c1ccc(NCCCNC(=O)[C@@H](CCCNC(=N)N)NC(=O)[C@@H](Cc2ccc(-c3ccccc3)cc2)NC(=O)CN2CCN(CC(=O)O)CCN(CC(=O)O)CCN(CC(=O)O)CC2)cc1)C(=O)NCc1ccc(O)cc1 (single isomer, unassigned) [Compound 152]"
2,< 10,"CCC(=O)NCCNC(=O)/N=C(/N)NCCC[C@@H](NC(=O)C(c1ccccc1)c1cccc(NCCCNc2c(NCCNC(=O)CN3CCN(CC(=O)O)CCN(CC(=O)O)CCN(CC(=O)O)CC3)c(=O)c2=O)c1)C(=O)NCc1ccc(O)cc1 (single isomer, unassigned) [Compound 120B]"
3,< 10,"CCC(=O)NCCNC(=O)/N=C(/N)NCCC[C@@H](NC(=O)C(c1ccccc1)c1ccc(NCCCNC(=O)[C@H](N)CCCNC(=O)CN2CCC(NC(=O)CN3CCN(CC(=O)O)CCN(CC(=O)O)CCN(CC(=O)O)CC3)CC2)cc1)C(=O)NCc1ccc(O)cc1 (single isomer, unassigned) [Compound 146A]"
4,< 10,"CCC(=O)NCCNC(=O)/N=C(/N)NCCC[C@@H](NC(=O)C(c1ccccc1)c1cccc(OCCCCNc2c(NCCNC(=O)[C@@H](CN)NC(=O)CN3CCN(CC(=O)O)CCN(CC(=O)O)CCN(CC(=O)O)CC3)c(=O)c2=O)c1)C(=O)NCc1ccc(O)cc1 (stereo in doubt) [Compound 115B-In, Indium (III) 2,2′,2″-(10-(2-(((R)-3-amino-1-((2-((2-((4-(3-((R,Z)-9-amino-4-((4-hydroxybenzyl)carbamoyl)-2,11,16-trioxo-1-phenyl-3,8,10,12,15-pentaazaoctadec-9-en-1-yl)phenoxy)butyl)amino)-3,4-dioxocyclobut-1-en-1-yl)amino)ethyl)amino)-1-oxopropan-2-yl)amino)-2-oxoethyl)-1,4,7,10-tetraaza-cyclododecane-1,4,7-triyl)triacetate]"
5,< 10,"CCC(=O)NCCNC(=O)/N=C(/N)NCCC[C@@H](NC(=O)C(c1ccccc1)c1cccc(OCCCCNC(=O)NNC(=O)CCNC(=O)CN2CCN(CC(=O)O)CCN(CC(=O)O)CCN(CC(=O)O)CC2)c1)C(=O)NCc1c(F)cc(O)cc1F (single isomer, unassigned) [Compound 166]"
6,< 10,"CCC(=O)NCCNC(=O)/N=C(/N)NCCC[C@@H](NC(=O)C(c1ccccc1)c1cccc(OCCCCNC(=O)[C@H](N)CCCCNC(=O)c2ccc(CNC(=O)CN3CCN(CC(=O)O)CCN(CC(=O)O)CCN(CC(=O)O)CC3)cc2)c1)C(=O)NCc1ccc(O)cc1 (single isomer, unassigned) [Compound 142B]"
7,10 to 100,"N=C(N)NCCC[C@@H](NC(=O)[C@@H](c1ccccc1)c1cccc(OCCCCNC(=O)[C@H](N)CCCCNC(=O)CN2CCN(CC(=O)O)CCN(CC(=O)O)CCN(CC(=O)O)CC2)c1)C(=O)NCc1ccc(O)cc1 [Compound 138, 2,2′,2″-(10-(2-(((R)-5-amino-6-((4-(3-((S)-2-(((R)-5-guanidino-1-((4-hydroxybenzyl)amino)-1-oxopentan-2-yl)amino)-2-oxo-1-phenylethyl)phenoxy)butyl)amino)-6-oxohexyl)amino)-2-oxoethyl)-1,4,7,10-tetraazacyclododecane-1,4,7-triyl)triacetic acid]"
8,< 10,"CCC(=O)NCCNC(=O)/N=C(/N)NCCC[C@@H](NC(=O)C(c1ccccc1)c1cccc(OCCCCNC(=O)C[C@H]2NC(=O)[C@@H](CCCNC(=O)CN3CCN(CC(=O)O)CCN(CC(=O)O)CCN(CC(=O)O)CC3)NC2=O)c1)C(=O)NCc1c(F)cc(O)cc1F (single isomer, unassigned) [Compound 164B]"

row,SMILES,Ki [nM]
1,"CCC(=O)NCCNC(=O)/N=C(/N)NCCC[C@@H](NC(=O)C(c1ccccc1)c1cccc(OCCCCNC(=O)NOCCNC(=O)CN2CCN(CC(=O)O)CCN(CC(=O)O)CCN(CC(=O)O)CC2)c1)C(=O)NCc1c(F)cc(O)cc1F (single isomer, unassigned) [Compound 163A]",< 10
2,"CCC(=O)NCCNC(=O)/N=C(/N)NCCC[C@@H](NC(=O)C(c1ccccc1)c1ccc(NCCNC(=O)[C@H](N)CCCNC(=O)CN2CCN(CC(=O)O)CCN(CC(=O)O)CCN(CC(=O)O)CC2)cc1)C(=O)NCc1ccc(O)cc1 (single isomer, unassigned) [Compound 143B]",< 10
3,"CCC(=O)NCCNC(=O)/N=C(/N)NCCC[C@@H](NC(=O)C(c1ccccc1)c1cccc(OCCCCNC(=O)c2ccc(CNC(=O)CN3CCN(CC(=O)O)CCN(CC(=O)O)CCN(CC(=O)O)CC3)cc2)c1)C(=O)NCc1ccc(O)cc1 (stereo partly drawn) [Compound 123, 2,2′,2″-(10-(2-((4-((4-(3-((4R,Z)-9-amino-4-((4-hydroxybenzyl)carbamoyl)-2,11,16-trioxo-1-phenyl-3,8,10,12,15-pentaazaoctadec-9-en-1-yl)phenoxy)butyl)carbamoyl)benzyl)amino)-2-oxoethyl)-1,4,7,10-tetraazacyclododecane-1,4,7-triyl)triacetic acid]",< 10
4,"CCC(=O)NCCNC(=O)/N=C(/N)NCCC[C@@H](NC(=O)C(c1ccccc1)c1cccc(OCCCCNC(=O)[C@@H](CCCN)NC(=O)CCNC(=O)CN2CCN(CC(=O)O)CCN(CC(=O)O)CCN(CC(=O)O)CC2)c1)C(=O)NCc1ccc(O)cc1 (single isomer, unassigned) [Compound 147A]",< 10
5,"CCC(=O)NCCNC(=O)/N=C(/N)NCCC[C@@H](NC(=O)C(c1ccccc1)c1ccc(NCCCNc2c(NCCCCCCNC(=O)CN3CCN(CC(=O)O)CCN(CC(=O)O)CCN(CC(=O)O)CC3)c(=O)c2=O)cc1)C(=O)NCc1ccc(O)cc1 (single isomer, unassigned) [Compound 156]",< 10
6,"CCC(=O)NCCNC(=O)/N=C(/N)NCCC[C@@H](NC(=O)C(c1ccccc1)c1cccc(OCCCCNC(=O)CONC(=O)CCNC(=O)CN2CCN(CC(=O)O)CCN(CC(=O)O)CCN(CC(=O)O)CC2)c1)C(=O)NCc1c(F)cc(O)cc1F (single isomer, unassigned) [Compound 167]",< 10
